Results reported in patent US7662832B2, “Pyrrolo[2,3-c]pyridine derivatives and processes for the preparation thereof” (priority 2004, dated 2010).
Counter-ions that a name gives are not always drawn.

Biological target: Proton Pump (H^+/K^+-ATPase) (Sus scrofa, UniProt P19156)
Test: Inhibitory effects on proton pump (H^+/K^+-ATPase) activity
Type: biochemical
Details: hog gastric vesicles; K^+ stimulated H^+/K^+-ATPase activity; 30 minutes at 37° C.

Sequence of Proton Pump (H^+/K^+-ATPase) (P19156 2-1034 limits assumed): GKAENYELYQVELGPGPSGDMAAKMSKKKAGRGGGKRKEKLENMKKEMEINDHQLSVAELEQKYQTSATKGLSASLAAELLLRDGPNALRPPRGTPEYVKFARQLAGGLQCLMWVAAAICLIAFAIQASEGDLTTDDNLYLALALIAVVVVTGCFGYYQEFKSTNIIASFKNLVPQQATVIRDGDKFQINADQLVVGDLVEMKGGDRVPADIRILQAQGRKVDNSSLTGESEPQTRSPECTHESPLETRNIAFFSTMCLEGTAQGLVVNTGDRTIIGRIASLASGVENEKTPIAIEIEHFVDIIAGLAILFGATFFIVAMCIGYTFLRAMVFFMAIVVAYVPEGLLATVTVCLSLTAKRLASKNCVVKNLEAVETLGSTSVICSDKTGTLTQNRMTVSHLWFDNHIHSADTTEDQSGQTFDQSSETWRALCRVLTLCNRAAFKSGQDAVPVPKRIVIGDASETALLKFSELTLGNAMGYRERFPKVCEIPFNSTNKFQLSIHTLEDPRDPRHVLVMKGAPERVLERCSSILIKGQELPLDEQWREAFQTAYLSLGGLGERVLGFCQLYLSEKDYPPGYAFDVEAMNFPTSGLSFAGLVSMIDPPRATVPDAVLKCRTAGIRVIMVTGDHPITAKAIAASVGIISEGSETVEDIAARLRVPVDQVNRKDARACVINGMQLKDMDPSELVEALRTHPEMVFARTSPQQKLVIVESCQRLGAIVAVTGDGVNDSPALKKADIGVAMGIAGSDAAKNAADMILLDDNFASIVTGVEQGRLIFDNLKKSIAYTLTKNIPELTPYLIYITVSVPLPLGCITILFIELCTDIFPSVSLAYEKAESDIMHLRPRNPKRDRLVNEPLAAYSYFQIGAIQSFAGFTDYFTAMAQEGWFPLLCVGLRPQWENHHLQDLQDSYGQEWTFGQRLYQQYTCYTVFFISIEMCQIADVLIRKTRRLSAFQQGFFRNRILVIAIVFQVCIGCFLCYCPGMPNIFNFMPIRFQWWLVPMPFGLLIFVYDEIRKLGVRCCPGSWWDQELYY
Sequence of Proton Pump (H^+/K^+-ATPase) (P18434 whole entry partner): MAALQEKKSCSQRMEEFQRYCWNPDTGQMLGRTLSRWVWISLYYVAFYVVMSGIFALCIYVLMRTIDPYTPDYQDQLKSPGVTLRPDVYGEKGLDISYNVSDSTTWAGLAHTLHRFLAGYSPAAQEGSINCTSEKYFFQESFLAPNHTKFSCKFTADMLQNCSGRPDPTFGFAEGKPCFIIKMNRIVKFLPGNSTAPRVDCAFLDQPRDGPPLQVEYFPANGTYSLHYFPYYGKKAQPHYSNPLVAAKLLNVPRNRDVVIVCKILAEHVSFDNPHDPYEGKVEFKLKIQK

IC50 | SMILES
159 nM | Cc1nc(Cn2c(C)c(C)c3ccnc(N4CCc5ccccc5C4C)c32)cs1 (stereo not drawn) [Example 559, 2-[2,3-dimethyl-1-(2-methylthiazol-4-ylmethyl)-1H-pyrrolo[2,3-c]pyridin-7-yl]-1-methyl-1,2,3,4-tetrahydroisoquinoline hydrochloride]
350 nM | Cc1[nH]c2c(-c3ccc(Cl)cc3)nccc2c1C [Example 299, 7-(4-chlorophenyl)-2,3-dimethyl-1H-pyrrolo[2,3-c]pyridine hydrochloride]
152 nM | Cc1cccc(Cn2c(C)c(C)c3cc(CN4CCN(C)CC4)nc(N4CCc5ccccc5C4)c32)c1 [Example 878, 2-[2,3-dimethyl-1-(3-methylbenzyl)-5-(4-methylpiperazin-1-ylmethyl)-1H-pyrrolo[2,3-c]pyridin-7-yl]-1,2,3,4-tetrahydroisoquinoline hydrochloride]
71 nM | COc1cccc(Cn2c(C)c(C)c3ccnc(COc4ccc(Cl)cc4)c32)c1 [Example 45, 7-(4-chlorophenoxymethyl)-1-(3-methoxybenzyl)-2,3-dimethyl-1H-pyrrolo[2,3-c]pyridine hydrochloride]
58 nM | Cc1c(C)n(Cc2ccccc2)c2c(COc3ccc(F)cc3)nccc12 [Example 3, 1-benzyl-7-(4-fluorophenoxymethyl)-2,3-dimethyl-1H-pyrrolo[2,3-c]pyridine hydrochloride]
300 nM | CC(C)=CCn1c(C)c(C)c2ccnc(N3CCc4ccccc4C3)c21 [Example 475, 1-(3-methylbut-2-enyl)-7-(1,2,3,4-tetrahydroisoquinolin-2-yl)-2,3-dimethyl-1H-pyrrolo[2,3-c]pyridine hydrochloride]
360 nM | CSc1ccc(-c2nccc3c(C)c(C)n(Cc4ccccc4F)c23)cc1 [Example 275, 2,3-dimethyl-1-(2-fluorobenzyl)-7-(4-methylsulfanylphenyl)-1H-pyrrolo[2,3-c]pyridine hydrochloride]
55 nM | CCn1c(C)c(C)c2cc(C(=O)N3CCSCC3)nc(N3CCc4ccccc4C3)c21 [Example 808, [7-(3,4-dihydro-1H-isoquinolin-2-yl)-1-ethyl-2,3-dimethyl-1H-pyrrolo[2,3-c]pyridin-5-yl]-(thiomorpholin-4-yl)-methanone hydrochloride]
300 nM | COCCn1c(C)c(C)c2ccnc(N(C)Cc3ccc(F)cc3)c21 [Example 143, 7-[N-(4-fluorobenzyl)-N-methyl]amino-1-(2-methoxyethyl)-2,3-dimethyl-1H-pyrrolo[2,3-c]pyridine hydrochloride]
1.5 nM | C#CCn1c(C)c(C)c2cc(C(N)=O)nc(N3CCc4ccccc4C3)c21 [Example 749, 7-(3,4-dihydro-1H-isoquinolin-2-yl)-2,3-dimethyl-1-(prop-2-ynyl)-1H-pyrrolo[2,3-c]pyridin-5-carboxamide]
390 nM | Cc1c(C)n(Cc2ccc(Cl)cc2)c2c(CCc3ccccc3)nccc12 [Example 446, 1-(4-chlorobenzyl)-2,3-dimethyl-7-phenethyl-1H-pyrrolo[2,3-c]pyridine hydrochloride]
460 nM | C=Cc1ccc(-c2nccc3c(C)c(C)n(CC)c23)cc1 [Example 251, 1-ethyl-2,3-dimethyl-7-(4-vinylphenyl)-1H-pyrrolo[2,3-c]pyridine hydrochloride]
140 nM | COc1cccc(Cn2c(C)c(C)c3ccnc(-c4ccc(SC)cc4)c32)c1 [Example 266, 1-(3-methoxybenzyl)-2,3-dimethyl-7-(4-methylsulfanylphenyl)-1H-pyrrolo[2,3-c]pyridine hydrochloride]
164 nM | Cc1c(C)n(Cc2cccc(Cl)c2)c2c(N3CCc4ccccc4C3)nc(C(=O)N3CCCCC3)cc12 [Example 799, [1-(3-chlorobenzyl)-7-(3,4-dihydro-1H-isoquinolin-2-yl)-2,3-dimethyl-1H-pyrrolo[2,3-c]pyridin-5-yl]-(piperidin-1-yl)-methanone hydrochloride]
150 nM | Cc1c(C)n(Cc2cccc(F)c2)c2c(N3CCc4ccc(F)cc4C3C)nccc12 (stereo not drawn) [Example 542, 7-fluoro-2-[1-(3-fluorobenzyl)-2,3-dimethyl-1H-pyrrolo[2,3-c]pyridin-7-yl]-1-methyl-1,2,3,4-tetrahydroisoquinoline hydrochloride]
94 nM | Cc1ccc(Cn2c(C)c(C)c3cc(C(=O)N4CCN(C)CC4)nc(N4CCc5ccccc5C4)c32)cc1 [Example 828, [7-(3,4-dihydro-1H-isoquinolin-2-yl)-1-(4-methylbenzyl)-2,3-dimethyl-1H-pyrrolo[2,3-c]pyridin-5-yl]-(4-methylpiperazin-1-yl)-methanone hydrochloride]
480 nM | COCCn1c(C)c(C)c2cc(C(=O)n3ccnc3)nc(N3CCc4ccccc4C3)c21 [Example 842, [7-(3,4-dihydro-1H-isoquinolin-2-yl)-1-(2-methoxyethyl)-2,3-dimethyl-1H-pyrrolo[2,3-c]pyridin-5-yl]-(imidazol-1-yl)-methanone hydrochloride]
230 nM | Cc1c(C)n(Cc2ccc(F)cc2)c2c(N3CCc4ccccc4C3)nccc12 [Example 471, 1-(4-fluorobenzyl)-7-(1,2,3,4-tetrahydroisoquinolin-2-yl)-2,3-dimethyl-1H-pyrrolo[2,3-c]pyridine hydrochloride]

IC50 | SMILES
500 nM | CCn1c(C)c(C)c2ccnc(N3CCc4ccccc4C3C3CC3)c21 (stereo not drawn) [Example 569, 1-cyclopropyl-2-(1-ethyl-2,3-dimethyl-1H-pyrrolo[2,3-c]pyridin-7-yl)-1,2,3,4-tetrahydroisoquinoline hydrochloride]
1140 nM | Cc1c(C)n(Cc2ccc(OC(F)(F)F)cc2)c2c(N3CCc4ccccc4C3)nccc12 [Example 479, 1-(4-trifluoromethoxybenzyl)-7-(1,2,3,4-tetrahydroisoquinolin-2-yl)-2,3-dimethyl-1H-pyrrolo[2,3-c]pyridine hydrochloride]
73 nM | Cc1c(C)n(Cc2cccc(F)c2)c2c(-c3ccc4ccccc4c3)nccc12 [Example 405, 1-(3-fluorobenzyl)-2,3-dimethyl-7-(naphthalen-2-yl)-1H-pyrrolo[2,3-c]pyridine hydrochloride]
46 nM | Cc1ccc(Cn2c(C)c(C)c3ccnc(CN(C)c4ccc(F)cc4)c32)cc1 [Example 117, N-[2,3-dimethyl-1-(4-methylbenzyl)-1H-pyrrolo[2,3-c]pyridin-7-ylmethyl]-N-(4-fluorophenyl)-methylamine hydrochloride]
33 nM | CCN1CCN(C(=O)c2cc3c(C)c(C)n(Cc4cccc(OC)c4)c3c(N3CCc4ccccc4C3)n2)CC1 [Example 824, [7-(3,4-dihydro-1H-isoquinolin-2-yl)-1-(3-methoxybenzyl)-2,3-dimethyl-1H-pyrrolo[2,3-c]pyridin-5-yl]-(4-ethylpiperazin-1-yl)-methanone hydrochloride]
179 nM | Cc1c(C)n(Cc2ccncc2)c2c(N3CCc4ccccc4C3)nccc12 [Example 518, 1-(pyridin-4-ylmethyl)-7-(1,2,3,4-tetrahydroisoquinolin-2-yl)-2,3-dimethyl-1H-pyrrolo[2,3-c]pyridine hydrochloride]
129 nM | C=CCn1c(C)c(C)c2ccnc(-c3ccc(C)cc3)c21 [Example 277, 1-allyl-2,3-dimethyl-7-(p-tolyl)-1H-pyrrolo[2,3-c]pyridine hydrochloride]
50 nM | C#CCn1c(C)c(C)c2ccnc(-c3ccc(C=C)cc3)c21 [Example 249, 2,3-dimethyl-1-(prop-2-ynyl)-7-(4-vinylphenyl)-1H-pyrrolo[2,3-c]pyridine hydrochloride]
139 nM | C=CCn1c(C)c(C)c2cc(N)nc(N3CCc4ccccc4C3)c21 [Example 846, 1-allyl-7-(3,4-dihydro-1H-isoquinolin-2-yl)-2,3-dimethyl-1H-pyrrolo[2,3-c]pyridin-5-amine hydrochloride]
220 nM | CSc1ccc(-c2nccc3c(C)c(C)n(Cc4cccc(F)c4)c23)cc1 [Example 272, 2,3-dimethyl-1-(3-fluorobenzyl)-7-(4-methylsulfanylphenyl)-1H-pyrrolo[2,3-c]pyridine hydrochloride]
25 nM | Cc1c(C)n(Cc2cccc(F)c2)c2c(N3CCc4ccccc4C3)nc(C(=O)O)cc12 [Example 737, 7-(3,4-dihydro-1H-isoquinolin-2-yl)-1-(3-fluorobenzyl)-2,3-dimethyl-1H-pyrrolo[2,3-c]pyridin-5-carboxylic acid]
260 nM | Cc1ccccc1CNc1nccc2c(C)c(C)n(Cc3ccccc3)c12 [Example 216, 1-benzyl-2,3-dimethyl-7-(2-methylbenzylamino)-1H-pyrrolo[2,3-c]pyridine hydrochloride]
75 nM | C=CCn1c(C)c(C)c2ccnc(-c3ccc(SC)cc3)c21 [Example 263, 1-allyl-2,3-dimethyl-7-(4-methylsulfanylphenyl)-1H-pyrrolo[2,3-c]pyridine hydrochloride]
99 nM | COc1cccc(Cn2c(C)c(C)c3cc(CN4CCN(C)CC4)nc(N4CCc5ccccc5C4)c32)c1 [Example 876, 2-[1-(3-methoxybenzyl)-2,3-dimethyl-5-(4-methylpiperazin-1-ylmethyl)-1H-pyrrolo[2,3-c]pyridin-7-yl]-1,2,3,4-tetrahydroisoquinoline hydrochloride]
1340 nM | Cc1ccc(-c2nccc3c(C)c(C)n(CC4CCC4)c23)cc1 [Example 289, 1-cyclobutylmethyl-2,3-dimethyl-7-(p-tolyl)-1H-pyrrolo[2,3-c]pyridine hydrochloride]
113 nM | CCCn1c(C)c(C)c2ccnc(-c3ccc4ccccc4c3)c21 [Example 407, 2,3-dimethyl-7-(naphthalen-2-yl)-1-propyl-1H-pyrrolo[2,3-c]pyridine hydrochloride]
43 nM | Cc1c(C)n(CC(C)C)c2c(N3CCc4ccccc4C3)nc(C(=O)N3CCN(C)CC3)cc12 [Example 833, [7-(3,4-dihydro-1H-isoquinolin-2-yl)-1-isobutyl-2,3-dimethyl-1H-pyrrolo[2,3-c]pyridin-5-yl]-(4-methylpiperazin-1-yl)-methanone hydrochloride]
270 nM | Cc1c(C)n(Cc2ccc(C(F)(F)F)cc2)c2c(N3CCc4ccccc4C3)nccc12 [Example 500, 7-(1,2,3,4-tetrahydroisoquinolin-2-yl)-1-(4-trifluoromethylbenzyl)-2,3-dimethyl-1H-pyrrolo[2,3-c]pyridine hydrochloride]
